Legend:
BDL rats [1] = assay: RotaRod-Accelerod test in BDL rats; type: in vivo
Protocol: (§1) All experiments were performed in accordance with the Animals (Scientific Procedures) Act of 1986, which was revised according to the European Directive2010/63/EU. All animals received humane care according to the criteria outlined in the Guide for the Care and Use of Laboratory Animals (National Institutes of Health publication 86-23; revised 1985). All the animals used in these experiments were Male Sprague-Dawley rats (body weight, 250 g at the beginning of the experiments) were obtained from Charles River Laboratories (Kent, UK) and divided into 5 groups: bile duct ligated animals+ammonia+saline serum (BDL+HA+SS, n=6), bile duct ligated animals+ammonia+sodium phenylacetate (BDL+HA+SP, n=6), bile duct ligated animals+ammonia+sodium phenylacetate+glutamine synthetase (BDL+HA+SP+GS, n=5), bile duct ligated animals+ammonia+glutamine synthetase (BDL+HA+GS, n=6), sham-operated animals+glutamine synthetase (SHAM+GS, n=5). Treatment comprising SP and GS may be referred to as “COMBO”.
This test of motor performance consists of a motor-driven rotating rod that enables us to assess motor coordination and resistance to fatigue (Jones and Roberts 1968). […] Latency to fall off the rod and the actual rotation speed were recorded in the pre- and post-treatment conditions for all groups after 1 hour treatment.

BDL rats [2] = assay: Ammonia blood levels in BDL rats; type: in vivo; settings: BDL rats on hyperammonemic diet
Protocol: All experiments were performed in accordance with the Animals (Scientific Procedures) Act of 1986, which was revised according to the European Directive2010/63/EU. All animals received humane care according to the criteria outlined in the Guide for the Care and Use of Laboratory Animals (National Institutes of Health publication 86-23; revised 1985). All the animals used in these experiments were Male Sprague-Dawley rats (body weight, 250 g at the beginning of the experiments) were obtained from Charles River Laboratories (Kent, UK) and divided into 5 groups: bile duct ligated animals+ammonia+saline serum (BDL+HA+SS, n=6), bile duct ligated animals+ammonia+sodium phenylacetate (BDL+HA+SP, n=6), bile duct ligated animals+ammonia+sodium phenylacetate+glutamine synthetase (BDL+HA+SP+GS, n=5), bile duct ligated animals+ammonia+glutamine synthetase (BDL+HA+GS, n=6), sham-operated animals+glutamine synthetase (SHAM+GS, n=5). Treatment comprising SP and GS may be referred to as “COMBO”. […]
Plasma samples were collected from the leg vein at different timepoints in all groups. The timepoints were counted after the treatment with glutamine synthetase as follows: 6 hours, 24 hours, 48 hours and 5 days. […]

BDL rats [3] = assay: Brain oedema in the prefrontal cortex of BDL rats (dry weight technique); type: in vivo; settings: versus control without treatment
Protocol: as §1
This was measured using the dry weight technique as described previously. […] The dry weight was determined after Eppendorf's loaded with individual brain samples were dried in an oven at 60° C. for 7 days. Tissue water content was then calculated as % H2O=(1-dry wt/wet wt)×100%.

[4] = mouse, in vivo, sc, 2.5 mg/kg
Protocol: The ELISA was conducted according to the protocol outlined by the manufacturer (Abcam PEG ELISA kit, ab133065). […] N=2 animals in each group.

| Compound | rotarod grip test performance (BDL rats [1]) | ammonia levels in the blood (BDL rats [2]) | brain oedema in the prefrontal cortex (BDL rats [3]) | plasma level (PEG ELISA) [4] |
| --- | --- | --- | --- | --- |
| O=C([O-])Cc1ccccc1.[Na+] [SP, sodium phenylacetate] | did not lead to stastically significant effects | significant reduction of ammonia levels in the blood | did not statistically significantly reduce the swelling |  |
| wt GS: Non-conjugated human glutamine synthetase with N-terminal His-tag and GGGGS linker (SEQ ID NO: 4), expressed in E. coli |  |  |  | very low or undetectable levels |
